Laboratory results taken from patent US8247211B2, “Glycopeptide antibiotics” (American Cyanamid Company, priority 2001, dated 2012).

Columns and labels:
Enterococcus sp. = test: In vitro antibacterial evaluation: minimum inhibitory concentration (MIC), broth dilution method; assay type: cell-based; conditions: 18 hours at 35° C.
Outline: (§1)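 MIC read as lowest drug level preventing visible growth. Organisms at 5×10^5 CFU/mL were exposed to a 64-0.06 μg/mL dilution series in Muller-Hinton II […] following NCCLS broth dilution standard M7-A2.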

Streptococcus sp. = test: as above; assay type: cell-based; conditions: 18 hours at 35° C.
Outline: as §1

Escherichia coli = test: as above; assay type: cell-based; conditions: 18 hours at 35° C.
Outline: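 Susceptibility determined by NCCLS-recommended broth dilution (M7-A2), Muller-Hinton II […]. Concentration span 64-0.06 μg/mL, inoculum 5×10^5 CFU/mL. Isolates include strains resistant to methicillin, penicillin and/or vancomycin.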

Staphylococcus sp. = test: as above; assay type: cell-based; conditions: 18 hours at 35° C.
Outline: as §1

[1] = assay type: in vivo; conditions: mice, 20 mg/kg intravenously daily for 9 days, serum on day 10
Procedure: 20-day-old CD-1 mice were divided into a vehicle control group (5 mice) and a treatment group (5 mice). Samples of glycopeptide antibiotics were administered at 20 mg/kg intravenously daily for 9 days. Animals were necropsied on day 10 Sera were analyzed for BUN (blood urea nitrogen), creatinine, AST (aspartic aminotransferase), and ALT (alanine aminotransferase) by routine, standard, automated methods using an Hitachi 747 chemistry analyzer.

[2] = Anatomic pathology (heart and kidney histopathology) in mice; assay type: in vivo, CD-1 mice; conditions: 20 mg/kg intravenously daily for 9 days, microscopic histopathology on day 10
Outline: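 Histopathology on H&E-stained, paraffin-embedded sections, subjectively scored (slight, mild, moderate, marked, severe) relative to untreated controls. Dosing: glycopeptide antibiotics 20 mg/kg intravenously once daily ×9 days in 20-day-old CD-1 mice, n=5 per group including vehicle.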

[3] = tested on: Staphylococcus aureus-SMITH (GC 4543); test: Acute lethal infection in mice (ED50); assay type: in vivo; conditions: female CD-1 mice, intraperitoneal challenge, intravenous dose 30 min. after infection, 7 day survival ratios
Outline: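 ED50 derived from pooled 7-day survival in three separate experiments, five mice per dose level. Single intravenous dose 30 min after intraperitoneal infection of female CD-1 mice with enough bacteria to kill untreated animals in 24-48 h.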

[4] = broth dilution, inoculum 5×10^5 CFU/mL

COc1ccc2cc(COCC3OC(OC4C(CO)OC(Oc5ccc(CC6NC(=O)C(C(C)c7ccccc7)NC(=O)CNC(=O)C(CO)NC(=O)C(CC7CNC(=N)N7C7OC(CO)C(O)C(O)C7O)NC(=O)C(CC7CNC(=N)N7)NC6=O)cc5)C(O)C4O)C(O)C(O)C3O)ccc2c1 (stereo not drawn) [Example 245, Cyclo[3-(2-iminoimidazolidin-4-yl)alanyl-3-(3-hexopyranosyl-2-iminoimidazolidin-4-yl)-alanylserylglycyl-β-methylphenylalanyl-O-[4-O-[6-O-[(6-methoxy-2-naphthyl)methyl]-hexopyranosyl)hexopyranosyl]tyrosyl]]
64 mg/L: MIC Escherichia coli (ATCC 25922) (Escherichia coli; Escherichia coli (ATCC 25922))
0: Anatomical Pathology (Day 10), Heart [2]
1 mg/L: MIC Streptococcus pneumoniae (GC 1894) (Streptococcus sp.; Streptococcus pneumoniae (GC 1894)) | MIC Streptococcus pneumoniae (GC 1894) (Streptococcus sp.; [4]) | MIC Coagulase Negative Staphylococcus (GC 4549) (Staphylococcus sp.; Coagulase Negative Staphylococcus (GC 4549))
16 mg/L: MIC Enterococcus avium (GC 4558) (Enterococcus sp.; Enterococcus avium (GC 4558)) | MIC Enterococcus faecalis (GC 2242) (Enterococcus sp.; Enterococcus faecalis (GC 2242)) | MIC Enterococcus faecalis (GC 3059) (Enterococcus sp.; Enterococcus faecalis (GC 3059)) | MIC Enterococcus faecalis (GC 4552) (Enterococcus sp.; Enterococcus faecalis (GC 4552)) | MIC Enterococcus faecalis (GC 4553) (Enterococcus sp.; Enterococcus faecalis (GC 4553)) | MIC Enterococcus faecium (GC 2243) (Enterococcus sp.; Enterococcus faecium (GC 2243)) | MIC Enterococcus faecium (GC 4556) (Enterococcus sp.; Enterococcus faecium (GC 4556)) | MIC Enterococcus faecalis (GC 2242) (Enterococcus sp.; [4]) | MIC Enterococcus faecalis (GC 3059) (Enterococcus sp.; [4])
8 mg/L: MIC Coagulase Negative Staphylococcus (GC 4551) (Staphylococcus sp.; Coagulase Negative Staphylococcus (GC 4551)) | MIC Staphylococcus aureus (GC 1131) (Staphylococcus sp.; Staphylococcus aureus (GC 1131)) | MIC Staphylococcus aureus (GC 4544) (Staphylococcus sp.; Staphylococcus aureus (GC 4544))
4 mg/kg: median effective dose (ED50), Staphylococcus aureus-SMITH (GC 4543) [3]
+++: Anatomical Pathology (Day 10), Kidney [2]
32 mg/L: MIC Enterococcus faecalis (ATCC 29212) (Enterococcus sp.; Enterococcus faecalis (ATCC 29212)) | MIC Enterococcus faecalis (GC 2691) (Enterococcus sp.; Enterococcus faecalis (GC 2691)) | MIC Enterococcus faecalis (GC 4554) (Enterococcus sp.; Enterococcus faecalis (GC 4554)) | MIC Enterococcus faecalis (GC 6189) (Enterococcus sp.; Enterococcus faecalis (GC 6189)) | MIC Enterococcus faecalis (GC 2691) (Enterococcus sp.; [4]) | MIC Escherichia coli (GC 4559) (Escherichia coli; Escherichia coli (GC 4559))
2 mg/L: MIC Streptococcus pneumoniae (ATCC 6301) (Streptococcus sp.; Streptococcus pneumoniae (ATCC 6301)) | MIC Streptococcus pneumoniae (ATCC 6301) (Streptococcus sp.; [4]) | MIC Coagulase Negative Staphylococcus (GC 4548) (Staphylococcus sp.; Coagulase Negative Staphylococcus (GC 4548)) | MIC Coagulase Negative Staphylococcus (GC 6257) (Staphylococcus sp.; Coagulase Negative Staphylococcus (GC 6257))
+160%: Clinical Chemistry (Day 10) % of Control, BUN [1]
4 mg/L: MIC Enterococcus faecium (GC 4557) (Enterococcus sp.; Enterococcus faecium (GC 4557)) | MIC Streptococcus agalactiae (GC 4564) (Streptococcus sp.; Streptococcus agalactiae (GC 4564)) | MIC Streptococcus pneumoniae (GC 4565) (Streptococcus sp.; Streptococcus pneumoniae (GC 4565)) | MIC Streptococcus pyogenes (GC 4563) (Streptococcus sp.; Streptococcus pyogenes (GC 4563)) | MIC Streptococcus agalactiae (GC 4564) (Streptococcus sp.; [4]) | MIC Streptococcus pneumoniae (GC 4565) (Streptococcus sp.; [4]) | MIC Streptococcus pyogenes (GC 4563) (Streptococcus sp.; [4]) | MIC Escherichia coli (GC 4560) (Escherichia coli; Escherichia coli (GC 4560)) | MIC Coagulase Negative Staphylococcus (GC 4547) (Staphylococcus sp.; Coagulase Negative Staphylococcus (GC 4547)) | MIC Staphylococcus aureus (ATCC 29213) (Staphylococcus sp.; Staphylococcus aureus (ATCC 29213)) | MIC Staphylococcus aureus (GC 3051) (Staphylococcus sp.; Staphylococcus aureus (GC 3051)) | MIC Staphylococcus aureus (GC 3053) (Staphylococcus sp.; Staphylococcus aureus (GC 3053)) | MIC Staphylococcus aureus (GC 4541) (Staphylococcus sp.; Staphylococcus aureus (GC 4541)) | MIC Staphylococcus aureus (GC 4542) (Staphylococcus sp.; Staphylococcus aureus (GC 4542)) | MIC Staphylococcus aureus (GC 4545) (Staphylococcus sp.; Staphylococcus aureus (GC 4545)) | MIC Staphylococcus aureus-SMITH (GC 4543) (Staphylococcus sp.; Staphylococcus aureus-SMITH (GC 4543)) | MIC Staphylococcus haemolyticus (GC 4546) (Staphylococcus sp.; Staphylococcus haemolyticus (GC 4546))
